These results are taken from publication PMC4824752 (Structure (London, England : 1993), 2015).

The structures appear in SMILES notation.

Test [1] has as its system ELIC with the entire aromatic network of GLIC. It is filed as cell-based. The note with it: read-out: EC50, concentration of cysteamine to elicit half maximal channel gating, oocytes.
Another test concerns the target ELIC L308W (Dickeya chrysanthemi, UniProt P0C7B7, L308W). The test can be described thus: Two-electrode voltage clamp dose response to cysteamine, ELIC L308W mutant. In kind it is cell-based. In general terms: Two-electrode voltage clamp is typically applied to oocytes expressing channels or transporters.
The target of the next test is wild type ELIC (Dickeya chrysanthemi, UniProt P0C7B7). In kind it is cell-based. Conditions: read-out: EC50, concentration of cysteamine to elicit half maximal channel gating, oocytes, whole cell currents.
The next test deals with ELIC G318F/V260Y (Dickeya chrysanthemi, UniProt P0C7B7, G318F/V260Y). It is filed as cell-based. The note with it: read-out: EC50, concentration of cysteamine to elicit half maximal channel gating; ELIC G318F/V260Y double mutant, oocytes.
The next test has as its target ELIC I319F/V260Y (Dickeya chrysanthemi, UniProt P0C7B7, I319F/V260Y). In kind it is cell-based. Conditions: read-out: EC50, concentration of cysteamine to elicit half maximal channel gating; ELIC I319F/V260Y double mutant, oocytes.
The subject of test [2] is human muscle-type nAChR C418W. In kind it is cell-based. Conditions: C418W relative to wild type.
Test [3] deals with GLIC aromatic-to-Ala mutants at the M4-M1/M3 interface. Conditions: Fig. S4.
Test [4] deals with ELIC aliphatic-to-aromatic mutants at the M4-M1/M3 interface. The note with it: Fig. S4.

In the case of `NCCS` [cysteamine], the EC50 worked out at 150 ± 40 µM in test [1]; 290 ± 50 µM on ELIC L308W (read-out: EC50, concentration of cysteamine to elicit half maximal channel gating, ELIC L308W, oocytes); 940 ± 160 µM on wild type ELIC; 130 µM at ELIC G318F/V260Y; 130 µM on ELIC I319F/V260Y. In addition, the “magnitude of the L308W gain of function relative to the wild type ELIC” value at ELIC L308W (L308W relative to wild type ELIC) is around 5 fold.

Regarding `CC(=O)OCC[N+](C)(C)C` [acetylcholine], the “potentiation of nAChR channel function by C418W (EC50 wild type vs C418W)” value in test [2] was “roughly 25 fold”.

On to `CC(C)c1cccc(C(C)C)c1O` [propofol, 2,6 diisopropylphenol], for which the “effect of aromatic-to-Ala substitutions on propofol inhibition” value in test [3] is “None of the aromatic-to-Ala substitutions at the M4-M1/M3 interface of GLIC or the aliphatic-to-aromatic substitutions at the same interface in ELIC, however, had a major effect on propofol inhibition”. The “effect of aliphatic-to-aromatic substitutions on propofol inhibition” value in test [4] is “None of the aromatic-to-Ala substitutions at the M4-M1/M3 interface of GLIC or the aliphatic-to-aromatic substitutions at the same interface in ELIC, however, had a major effect on propofol inhibition”.
